Experimental data taken from patent publication US20190152992A1, “BENZODIOXANE DERIVATIVES AND THEIR PHARMACEUTICAL USE” (Orion Corporation, priority 2016, published 2019).
Where a name gives a salt, the structure may show the parent alone.

Assays:
human alpha2A receptors = molecular target: T1, human alpha2A receptors (Homo sapiens, UniProt P08913); experiment: cell-based
T1 sequence (P08913 1-465): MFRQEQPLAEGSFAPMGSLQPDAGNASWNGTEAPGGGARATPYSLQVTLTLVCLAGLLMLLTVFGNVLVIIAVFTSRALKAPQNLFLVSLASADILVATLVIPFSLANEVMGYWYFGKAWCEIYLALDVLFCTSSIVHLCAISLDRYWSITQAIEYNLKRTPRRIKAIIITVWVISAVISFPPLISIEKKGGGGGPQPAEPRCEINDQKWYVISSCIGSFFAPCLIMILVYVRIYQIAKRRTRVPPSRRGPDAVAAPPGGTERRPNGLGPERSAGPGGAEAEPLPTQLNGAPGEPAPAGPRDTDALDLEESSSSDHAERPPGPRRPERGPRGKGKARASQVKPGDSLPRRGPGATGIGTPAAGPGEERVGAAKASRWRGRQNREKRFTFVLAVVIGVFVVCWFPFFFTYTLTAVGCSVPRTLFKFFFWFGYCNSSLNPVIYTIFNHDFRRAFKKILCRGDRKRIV

human alpha2C receptors = molecular target: T2, human alpha2C receptors (Homo sapiens, UniProt P18825); experiment: Determination of alpha2C antagonistic activity in vitro (FLIPR calcium assay); conditions: for Kb: Alpha 2C Adrenaline Kb, Kb calculated from IC50 with the Cheng-Prusoff equation, adrenaline as agonist, CHO cells, human alpha2C
T2 sequence (P18825 1-462): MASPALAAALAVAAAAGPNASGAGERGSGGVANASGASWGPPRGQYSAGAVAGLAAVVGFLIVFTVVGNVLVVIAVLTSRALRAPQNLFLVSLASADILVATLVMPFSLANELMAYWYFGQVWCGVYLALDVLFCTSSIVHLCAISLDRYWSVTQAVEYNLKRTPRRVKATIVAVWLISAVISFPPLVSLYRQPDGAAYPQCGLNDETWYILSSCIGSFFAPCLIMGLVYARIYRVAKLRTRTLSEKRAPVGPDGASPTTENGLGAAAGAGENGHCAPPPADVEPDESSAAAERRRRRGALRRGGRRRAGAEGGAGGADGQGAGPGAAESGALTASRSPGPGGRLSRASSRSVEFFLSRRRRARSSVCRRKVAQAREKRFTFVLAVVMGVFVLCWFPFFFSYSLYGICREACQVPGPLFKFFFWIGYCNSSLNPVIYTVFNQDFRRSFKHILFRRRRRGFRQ

Row | Compound | IC50 (human alpha2A receptors) [nM] | Kb (human alpha2A receptors) [nM] | IC50 (human alpha2C receptors) [nM] | Kb (human alpha2C receptors) [nM]
1 | O=C1C2=C(CCCC2)C(=O)N1[C@H]1CCCN(C[C@H]2COc3ccccc3O2)C1 [example 94, 2-((S)-1-(((S)-2,3-Dihydrobenzo[b][1,4]dioxin-2-yl)methyl)-piperidin-3-yl)-4,5,6,7-tetrahydro-1H-isoindole-1,3(2H)-dione hydrochloride] | > 10000 | > 449 | < 0.1 | < 0.01
2 | Cc1nc2cc(F)c(F)cc2n1[C@H]1CCCN(C[C@H]2COc3ccccc3O2)C1 [example 28, 1-((S)-1-(((S)-2,3-Dihydrobenzo[b][1,4]dioxin-2-yl)methyl)piperidin-3-yl)-5,6-difluoro-2-methyl-1H-benzo[d]imidazole] | > 10000 | > 449 | 5.43 | 0.547
3 | CC(C)CN1CC(=O)N([C@H]2CCCN(C[C@H]3COc4ccccc4O3)C2)C1=O [example 107, 3-((S)-1-(((S)-2,3-Dihydrobenzo[b][1,4]dioxin-2-yl)methyl)piperidin-3-yl)-1-isobutylimidazolidine-2,4-dione] | > 10000 | > 449 | 0.284 | 0.029
4 | Cn1ncc2c1CN([C@H]1CCCN(C[C@H]3COc4ccccc4O3)C1)C2=O [example 80, 5-((S)-1-(((S)-2,3-Dihydrobenzo[b][1,4]dioxin-2-yl)methyl)piperidin-3-yl)-1-methyl-5,6-dihydropyrrolo[3,4-c]pyrazol-4(1H)-one] | > 10000 | > 449 | > 10000 | > 1010
5 | C[C@H]1C(=O)N([C@H]2CCCN(C[C@H]3COc4ccccc4O3)C2)C(=O)[C@@H]1C [example 4, (3R,4R)-1-((S)-1-(((S)-2,3-Dihydrobenzo[b][1,4]dioxin-2-yl)methyl)piperidin-3-yl)-3,4-dimethylpyrrolidine-2,5-dione] | > 10000 | > 449 | 1.77 | 0.18
6 | O=C1c2ccc(F)c(F)c2CN1[C@H]1CCCN(C[C@H]2COc3ccccc3O2)C1 [example 56, 2-((S)-1-(((S)-2,3-Dihydrobenzo[b][1,4]dioxin-2-yl)methyl)piperidin-3-yl)-4,5-difluoroisoindolin-1-one hydrochloride] | > 10000 | > 449 | 0.519 | 0.052
7 | CN1CC(=O)N([C@H]2CCCN(C[C@H]3COc4ccccc4O3)C2)C1=O [example 103, 3-((S)-1-(((S)-2,3-Dihydrobenzo[b][1,4]dioxin-2-yl)methyl)piperidin-3-yl)-1-methylimidazolidine-2,4-dione] | > 10000 | > 449 | 3.17 | 0.32
8 | O=C1C(=O)N([C@H]2CCCN(C[C@H]3COc4ccccc4O3)C2)C(=O)N1Cc1cccnc1 [example 143, 1-((S)-1-(((S)-2,3-Dihydrobenzo[b][1,4]dioxin-2-yl)methyl)piperidin-3-yl)-3-(pyridin-3-ylmethyl)imidazolidine-2,4,5-trione] | > 10000 | > 449 | 1.38 | 0.14
9 | Cn1c(=O)n([C@H]2CCCN(C[C@H]3COc4ccccc4O3)C2)c2ccccc21 [example 147, 1-((S)-1-(((S)-2,3-Dihydrobenzo[b][1,4]dioxin-2-yl)methyl)piperidin-3-yl)-3-methyl-1H-benzo[d]imidazol-2(3H)-one] | > 10000 | > 449 | 228 | 22.9
10 | O=C1c2ccccc2C(=O)N1[C@H]1CCCN(C[C@H]2COc3ccccc3O2)C1 [example 61, 2-((S)-1-(((S)-2,3-Dihydrobenzo[b][1,4]dioxin-2-yl)methyl)piperidin-3-yl)isoindoline-1,3-dione] | > 10000 | > 449 | 0.062 | 0.006
11 | O=C1C2CC2(c2ccccc2)C(=O)N1[C@H]1CCCN(C[C@H]2COc3ccccc3O2)C1 (stereo partly drawn) [example 37, 3-((S)-1-(((S)-2,3-Dihydrobenzo[b][1,4]dioxin-2-yl)methyl)piperidin-3-yl)-1-phenyl-3-azabicyclo[3.1.0]hexane-2,4-dione] | > 10000 | > 449 | < 0.01 | < 0.001
12 | CN1CCN([C@H]2CCCN(C[C@H]3COc4ccccc4O3)C2)C1=O [example 101, 1-((S)-1-(((S)-2,3-Dihydrobenzo[b][1,4]dioxin-2-yl)methyl)piperidin-3-yl)-3-methylimidazolidin-2-one] | > 10000 | > 449 | 0.78 | 0.08
13 | Cc1nc2ccc(F)cc2n1[C@H]1CCCN(C[C@H]2COc3ccccc3O2)C1 [example 83, 1-((S)-1-(((S)-2,3-Dihydrobenzo[b][1,4]dioxin-2-yl)methyl)piperidin-3-yl)-6-fluoro-2-methyl-1H-benzo[d]imidazole] | > 10000 | > 449 | < 0.1 | < 0.01
14 | C[C@@]1(c2ccccc2)CCN([C@H]2CCCN(C[C@H]3COc4ccccc4O3)C2)C1=O [example 15, (S)-1-((S)-1-(((S)-2,3-Dihydrobenzo[b][1,4]dioxin-2-yl)methyl)-piperidin-3-yl)-3-methyl-3-phenylpyrrolidin-2-one] | > 10000 | > 449 | 363 | 36.6
15 | O=C1c2ncsc2CN1[C@H]1CCCN(C[C@H]2COc3ccccc3O2)C1 [example 13, 5-((S)-1-(((S)-2,3-Dihydrobenzo[b][1,4]dioxin-2-yl)methyl)piperidin-3-yl)-5,6-dihydro-4H-pyrrolo[3,4-d]thiazol-4-one] | > 10000 | > 449 | 22.4 | 2.26

Further lines, results first:

Row | IC50 (human alpha2A receptors) [nM] | Kb (human alpha2A receptors) [nM] | IC50 (human alpha2C receptors) [nM] | Kb (human alpha2C receptors) [nM] | Compound
16 | > 10000 | > 449 | 127 | 12.8 | O=C1c2cnccc2CN1[C@H]1CCCN(C[C@H]2COc3ccccc3O2)C1 [example 11, 2-((S)-1-(((S)-2,3-Dihydrobenzo[b][1,4]dioxin-2-yl)methyl)piperidin-3-yl)-1H-pyrrolo[3,4-c]pyridin-3(2H)-one]
17 | 9830 | 441 | 0.113 | 0.012 | CC(=O)N1CCC(N2C(=O)C(=O)N([C@H]3CCCN(C[C@H]4COc5ccccc5O4)C3)C2=O)CC1 [example 139, 1-(1-Acetylpiperidin-4-yl)-3-((S)-1-(((S)-2,3-dihydrobenzo[b][1,4]-dioxin-2-yl)methyl)piperidin-3-yl)imidazolidine-2,4,5-trione]
18 | > 10000 | > 449 | 1.25 | 0.13 | O=C1CN(CC2CC2)C(=O)N1[C@H]1CCCN(C[C@H]2COc3ccccc3O2)C1 [example 108, 1-(Cyclopropylmethyl)-3-((S)-1-(((S)-2,3-dihydrobenzo[b][1,4]dioxin-2-yl)methyl)piperidin-3-yl)imidazolidine-2,4-dione]
19 | 8890 | 399 | 1.19 | 0.119 | C[C@H](c1ccccc1)N1C(=O)C(=O)N([C@H]2CCCN(C[C@H]3COc4ccccc4O3)C2)C1=O [example 128, 1-((S)-1-(((S)-2,3-Dihydrobenzo[b][1,4]dioxin-2-yl)methyl)-piperidin-3-yl)-3-((R)-1-phenylethyl)imidazolidine-2,4,5-trione]
20 | > 10000 | > 449 | 2.02 | 0.203 | CC1(C)CCN([C@H]2CCCN(C[C@H]3COc4ccccc4O3)C2)C1=O [example 100, 1-((S)-1-(((S)-2,3-Dihydrobenzo[b][1,4]dioxin-2-yl)methyl)piperidin-3-yl)-3,3-dimethylpyrrolidin-2-one]
21 | > 10000 | > 449 | 10.5 | 1.05 | O=C1c2ncccc2CN1[C@H]1CCCN(C[C@H]2COc3ccccc3O2)C1 [example 77, 6-((S)-1-(((S)-2,3-Dihydrobenzo[b][1,4]dioxin-2-yl)methyl)piperidin-3-yl)-5H-pyrrolo[3,4-b]pyridin-7(6H)-one]
22 | 11100 | 498 | < 0.1 | < 0.01 | Cc1nc2ccc(Cl)cc2n1[C@H]1CCCN(C[C@H]2COc3ccccc3O2)C1 [example 90, 6-Chloro-1-((S)-1-(((S)-2,3-dihydrobenzo[b][1,4]dioxin-2-yl)methyl)piperidin-3-yl)-2-methyl-1H-benzo[d]imidazole]
23 | 1300 | 58 | 0.13 | 0.01 | CCC1(CC)OC(=O)N([C@H]2CCCN(C[C@H]3COc4ccccc4O3)C2)C1=O [example 5, 3-((S)-1-(((S)-2,3-Dihydrobenzo[b][1,4]dioxin-2-yl)methyl)piperidin-3-yl)-5,5-diethyloxazolidine-2,4-dione]
